Assay results reported in patent US9708557B2, “Process for the treatment of liquefied hydrocarbon gas using 2-amino-2(hydroxymethyl) propane-1,3-diol compounds” (Dow Global Technologies LLC, priority 2012, dated 2017).

Experiments:
[1] = pKa by automated Mettler Toledo titration; conditions: 50 weight % aqueous amine solution
[2] = Solubility of tested amine in heptane phase (gas chromatography, toluene internal standard); conditions: heptane 10 g, toluene 0.1 g, amine 2.5 g mixed at 20° C. for 1 hour, decanted 15 minutes; average of three injections
Procedure: A solution of heptane (10 g), toluene (0.1 g) and the tested amine (2.5 g) are mixed at 20° C. for 1 hour. The mixture is decanted for 15 minutes and the neat heptane phase is analyzed by gas chromatography using toluene as internal standard. The injection is repeated three times and peak areas of tested amine are averaged.

Row | pKa [1] | area counts (GC peak area of tested amine in neat heptane phase) [2] [area counts] | Compound
1 | 9.1 | 50 | CN(C)C(CO)(CO)CO [DMTA, 2-dimethylamino-2-(hydroxymethyl)propane-1,3-diol]
2 |  | 0 | NC(CO)(CO)CO [TA, 2-amino-2-(hydroxymethyl)propane-1,3-diol]
